# Source: patent US4874898A, “Novel substituted anthrasteroid derivatives” (Shionogi and Co., Ltd. Patent Department, priority 1987, dated 1989)
# Legend:
# seminal vesicles [1] = experiment: Assay for Antiandrogenic Activity (Subcutaneous administration), seminal vesicle weight; assay type: in vivo, SD-JCL male rats (castrated); details: for I. R. (%) A* (Inhibition rate, seminal vesicle) / Weight (Mean mg ± S.E.) A* (seminal vesicle): 7 days; for I. R. (%) A* (Inhibition rate, seminal vesicle): with testosterone propionate 0.02 mg/day, Table 1-1; for Weight (Mean mg ± S.E.) A* (seminal vesicle) / I. R. (%) A* (seminal vesicle): Table 1-2
# Description: (§1) Assay for Antiandrogenic Activity (Subcutaneous administration)
# (§2) The three week-old SD-JCL male rats were castrated and the drug treatment was started from three days after the castration. The rats were divided into groups; one group consists of six rats. One group was intact with any drug, the 2nd group was treated subcutaneously with a solution or suspension of 0.02 mg of testosterone propionate in sesame oil a day, and the other groups was treated with 0.1 to 3 mg of the test compound and 0.02 mg of testosterone propionate in sesame oil a day. This treatment was carried out for 7 days, successively. The rats were killed next day of the last treatment and the seminal vesicles and ventral prostates were taken out and weighed. Antiandrogenic activity of the test compounds were estimated as […] of seminal vesicles and ventral prostates induced by testosterone propionate.
# ventral prostates [2] = experiment: Assay for Antiandrogenic Activity (Subcutaneous administration), ventral prostate weight; assay type: in vivo, SD-JCL male rats (castrated); details: for I. R. (%) B* (Inhibition rate, prostate) / Weight (Mean mg ± S.E.) B* (prostate): 7 days; for I. R. (%) B* (Inhibition rate, prostate): with testosterone propionate 0.02 mg/day, Table 1-1; for Weight (Mean mg ± S.E.) B* (prostate) / I. R. (%) B* (prostate): Table 1-2
# Description: as §1, §2
# [3] = test system: Shionogi-carcinoma 115 (SC-115); experiment: Assay for growth inhibitory activity against androgen-dependent tumor (Shionogi-carcinoma 115); assay type: in vivo, mice (castrated); details: 14 days
# Excerpt: The followings show an assay for antiandrogenic activity against androgen-dependent tumor, Shionogi-carcinoma 115 (SC-115). The SC-115 is a tumor cell which grows in the presence of an androgen and its hormone dependency is widely known as a prostatic cancer model. Therefore, the androgenic activity is also estimated by examining the growth inhibition effect against this tumor.
# Assay for growth inhibitory activity against androgen-dependent tumor (Shionogi-carcinoma 115)
# The six week-old mice were castrated and […] of Shionogi-carcinoma tumor pieces was grafted into the back subcutaneously on the fifth day from the castration. The grafted mice were divided into groups, each consisting of seven mice, and the drug treatment was started immediately after the graft. One group was intact with any drug, and the 2nd group was treated subcutaneously with 0.1 mg of testosterone propionate a day. The other groups were treated subcutaneously with a suspension of 0.1 mg of testosterone propionate and 0.1 to 2.0 mg per day of test compounds a day as a conventional steroid solution. This treatment was carried out for 14 days, successively. The mice were killed next day of the last treatment and the tumor was taken out to weigh.
# seminal vesicles [4] = experiment: Assay for Antiandrogenic Activity (Oral Administration), seminal vesicle weight; assay type: in vivo, SD-JCL male rats (castrated); details: 3 mg orally, 7 days, with testosterone propionate 0.02 mg/day s.c.; Table 2
# Description: (§3) Assay for Antiandrogenic Activity (Oral Administration)
# (§4) The three week-old SD-JCL male rats were castrated and the drug treatment was started from three days after the castration. The rats were divided into groups; one group consists of six rats. One group was treated with 0.02 mg of testosterone propionate in sesame oil a day by injecting subcutaneously and the other groups were treated with 0.02 mg of testosterone propionate and simultaneously treated orally with a suspension of 3 mg of the test compound in sesame oil. The castrated control group was treated with sesame oil. This treatment was continued for 7 days, successively. The rats were killed 24 hours after the last treatment and the seminal vesicles and ventral prostates were taken out and weighed.
# ventral prostates [5] = experiment: Assay for Antiandrogenic Activity (Oral Administration), ventral prostate weight; assay type: in vivo, SD-JCL male rats (castrated); details: 3 mg orally, 7 days, with testosterone propionate 0.02 mg/day s.c.; Table 2
# Description: as §3, §4
# [6] = 0.1 mg/day s.c., with testosterone propionate 0.1 mg/day
# [7] = 0.5 mg/day s.c., with testosterone propionate 0.1 mg/day
# [8] = 2.0 mg/day s.c., with testosterone propionate 0.1 mg/day
# [9] = testosterone propionate alone, 0.02 mg/day s.c.
# [10] = 0.1 mg/day s.c., with testosterone propionate
# [11] = 0.3 mg/day s.c., with testosterone propionate
# [12] = 1 mg/day s.c., with testosterone propionate
# [13] = 3 mg/day s.c., with testosterone propionate
structure (smiles),measurement,setting,value
CC1=C2CCC3(C)C(=O)CCC3C2CC2CCC(=O)C=C12 (stereo not shown),"I. R. (%) A* (Inhibition rate, seminal vesicle)",seminal vesicles [1]; 1 mg/day s.c.,57%
same,"I. R. (%) B* (Inhibition rate, prostate)",ventral prostates [2]; 1 mg/day s.c.,42%
CC1=C2CCC3(C)C(O)C(Br)CC3C2CC2CCC(=O)C=C12 (stereo not shown),Inhibition Rate (%) of tumor weight,[3]; [6],11%
same,Tumor Weight (Mean mg ± S.E.),[3]; [6],2871 ± 277 mg
same,Inhibition Rate (%) of tumor weight,[3]; [7],40%
same,Tumor Weight (Mean mg ± S.E.),[3]; [7],1950 ± 144 mg
same,Inhibition Rate (%) of tumor weight,[3]; [8],69%
same,Tumor Weight (Mean mg ± S.E.),[3]; [8],1004 mg
"CCC(=O)O[C@H]1CC[C@H]2[C@@H]3CCC4=CC(=O)CC[C@]4(C)[C@H]3CC[C@]12C [Testosterone propionate, testosterone propionate, reference compound]",Weight (Mean mg ± S.E.) A* (seminal vesicle),seminal vesicles [1]; [9],26.1 ± 0.8 mg
same,Weight (Mean mg ± S.E.) B* (prostate),ventral prostates [2]; [9],40.1 ± 1.3 mg
same,Tumor Weight (Mean mg ± S.E.),"[3]; testosterone propionate alone, 0.1 mg/day s.c.",3241 ± 456 mg
CC1C2=CC(=O)CCC2CC2C1CCC1(C)C(O)CCC21 (stereo not shown),"I. R. (%) A* (Inhibition rate, seminal vesicle)",seminal vesicles [1]; 1 mg/day s.c.,25%
CC1=C2CC3(CCC2CC2C1=CCC1(C)C(=O)CCC21)OCCO3 (stereo not shown),I. R. (%) A* (seminal vesicle),seminal vesicles [4],26%
same,I. R. (%) B* (prostate),ventral prostates [5],25%
CC1=C2CCC3(C)C(CCC3(C)O)C2CC2CCC(=O)C=C12 (stereo not shown),"I. R. (%) A* (Inhibition rate, seminal vesicle)",seminal vesicles [1]; 1 mg/day s.c.,67%
same,"I. R. (%) B* (Inhibition rate, prostate)",ventral prostates [2]; 1 mg/day s.c.,41%
CC1=C2CCC3(C)C(O)C(CBr)CC3C2CC2CCC(=O)C=C12 (stereo not shown),I. R. (%) A* (seminal vesicle),seminal vesicles [4],51%
same,I. R. (%) B* (prostate),ventral prostates [5],43%
CCC(=O)OC1CCC2C3CC4CCC(=O)C=C4C(C)=C3CCC12C (stereo not shown),"I. R. (%) A* (Inhibition rate, seminal vesicle)",seminal vesicles [1]; 1 mg/day s.c.,74%
same,"I. R. (%) B* (Inhibition rate, prostate)",ventral prostates [2]; 1 mg/day s.c.,50%
CC1=C2CCC3(C)C(O)CCC3C2CC2CCC(=O)C=C12 (stereo not shown) [drawing 56],Inhibition Rate (%) of tumor weight,[3]; [6],48%
same,Tumor Weight (Mean mg ± S.E.),[3]; [6],1682 ± 177 mg
same,Inhibition Rate (%) of tumor weight,[3]; [7],59%
same,Tumor Weight (Mean mg ± S.E.),[3]; [7],1343 ± 283 mg
same,Inhibition Rate (%) of tumor weight,[3]; [8],92%
same,Tumor Weight (Mean mg ± S.E.),[3]; [8],255 mg
CC1=C2CCC3(C)C(OC4=CCCCCCC4)CCC3C2CC2CCC(=O)C=C12 (stereo not shown),I. R. (%) A* (seminal vesicle),seminal vesicles [4],39%
same,I. R. (%) B* (prostate),ventral prostates [5],34%
CC1=C2C=CC3(C)C(O)CCC3C2CC2CCC(=O)C=C12 (stereo not shown),"I. R. (%) A* (Inhibition rate, seminal vesicle)",seminal vesicles [1]; 1 mg/day s.c.,69%
same,"I. R. (%) B* (Inhibition rate, prostate)",ventral prostates [2]; 1 mg/day s.c.,44%
CC1=C2CCC3(C)C(O)CCC3C2CC2CCC(=O)C=C12 (stereo not shown) [drawing 52],Weight (Mean mg ± S.E.) A* (seminal vesicle),seminal vesicles [1]; [10],19.9 ± 0.6 mg
same,I. R. (%) A* (seminal vesicle),seminal vesicles [1]; [10],31%
same,Weight (Mean mg ± S.E.) A* (seminal vesicle),seminal vesicles [1]; [11],20.7 ± 1.3 mg
same,I. R. (%) A* (seminal vesicle),seminal vesicles [1]; [11],27%
same,Weight (Mean mg ± S.E.) A* (seminal vesicle),seminal vesicles [1]; [12],15.0 ± 0.7 mg
same,I. R. (%) A* (seminal vesicle),seminal vesicles [1]; [12],56%
same,Weight (Mean mg ± S.E.) A* (seminal vesicle),seminal vesicles [1]; [13],11.4 ± 0.8 mg
same,I. R. (%) A* (seminal vesicle),seminal vesicles [1]; [13],74%
same,Weight (Mean mg ± S.E.) B* (prostate),ventral prostates [2]; [10],37.9 ± 3.0 mg
same,Weight (Mean mg ± S.E.) B* (prostate),ventral prostates [2]; [11],37.3 ± 3.0 mg
same,Weight (Mean mg ± S.E.) B* (prostate),ventral prostates [2]; [12],27.5 ± 2.2 mg
same,I. R. (%) B* (prostate),ventral prostates [2]; [12],43%
same,Weight (Mean mg ± S.E.) B* (prostate),ventral prostates [2]; [13],23.8 ± 1.6 mg
same,I. R. (%) B* (prostate),ventral prostates [2]; [13],55%
CC1=C2CCC3(C)C(O)C(F)CC3C2CC2CCC(=O)C=C12 (stereo not shown),"I. R. (%) A* (Inhibition rate, seminal vesicle)",seminal vesicles [1]; 1 mg/day s.c.,77%
same,"I. R. (%) B* (Inhibition rate, prostate)",ventral prostates [2]; 1 mg/day s.c.,52%
